Assay results published in ChEMBL document CHEMBL2034905, “Synthesis of benzimidazolyl-1,3,4-oxadiazol-2ylthio-N-phenyl (benzothiazolyl) acetamides as antibacterial, antifungal and antituberculosis agents” (Eur J Med Chem, 2012).
≈ marks a conversion by molar mass, not a printed value.

Legend:
[1] = system: Mycobacterium tuberculosis; assay: Antituberculosis activity against Mycobacterium tuberculosis H37Rv by BACTEC MGIT method; type: functional
[2] = system: Mycobacterium tuberculosis; assay: Antituberculosis activity against Mycobacterium tuberculosis H37Rv at 6.25 ug/ml by BACTEC MGIT method; type: functional
[3] = system: Mycobacterium tuberculosis; assay: Antituberculosis activity against Mycobacterium tuberculosis H37Rv by Lowenstein-Jensen method; type: functional
[4] = system: Mycobacterium tuberculosis; assay: Antituberculosis activity against Mycobacterium tuberculosis H37Rv at 6.25 ug/ml by Lowenstein-Jensen method; type: functional
[5] = Lipophilicity, log P of the compound; type: physicochemical; details: octanol/water
Staphylococcus aureus [6] = assay: Antibacterial activity against Staphylococcus aureus MTCC 96 at 100 ug/disc by paper disc diffusion technique; type: functional; details: read-out: IZ
Bacillus cereus [7] = assay: Antibacterial activity against Bacillus cereus MTCC 430 at 100 ug/disc by paper disc diffusion technique; type: functional; details: read-out: IZ
Escherichia coli [8] = assay: Antibacterial activity against Escherichia coli MTCC 739 at 100 ug/disc by paper disc diffusion technique; type: functional; details: read-out: IZ
Pseudomonas aeruginosa [9] = assay: Antibacterial activity against Pseudomonas aeruginosa MTCC 741 at 100 ug/disc by paper disc diffusion technique; type: functional; details: read-out: IZ
Klebsiella pneumoniae [10] = assay: Antibacterial activity against Klebsiella pneumoniae MTCC 109 at 100 ug/disc by paper disc diffusion technique; type: functional; details: read-out: IZ
Salmonella typhi [11] = assay: Antibacterial activity against Salmonella typhi MTCC 733 at 100 ug/disc by paper disc diffusion technique; type: functional, Salmonella enterica subsp. enterica serovar Typhi; details: Salmonella enterica, read-out: IZ
Proteus vulgaris [12] = assay: Antibacterial activity against Proteus vulgaris MTCC 1771 at 100 ug/disc by paper disc diffusion technique; type: functional; details: read-out: IZ
Shigella flexneri [13] = assay: Antibacterial activity against Shigella flexneri MTCC 1457 at 100 ug/disc by paper disc diffusion technique; type: functional; details: read-out: IZ
Staphylococcus aureus [14] = assay: Antibacterial activity against Staphylococcus aureus MTCC 96 by agar streak dilution method; type: functional
Bacillus cereus [15] = assay: Antibacterial activity against Bacillus cereus MTCC 430 by agar streak dilution method; type: functional
Escherichia coli [16] = assay: Antibacterial activity against Escherichia coli MTCC 739 by agar streak dilution method; type: functional
Pseudomonas aeruginosa [17] = assay: Antibacterial activity against Pseudomonas aeruginosa MTCC 741 by agar streak dilution method; type: functional
Klebsiella pneumoniae [18] = assay: Antibacterial activity against Klebsiella pneumoniae MTCC 109 by agar streak dilution method; type: functional
Salmonella typhi [19] = assay: Antibacterial activity against Salmonella typhi MTCC 733 by agar streak dilution method; type: functional, Salmonella enterica subsp. enterica serovar Typhi; details: Salmonella enterica
Proteus vulgaris [20] = assay: Antibacterial activity against Proteus vulgaris MTCC 1771 by agar streak dilution method; type: functional
Shigella flexneri [21] = assay: Antibacterial activity against Shigella flexneri MTCC 1457 by agar streak dilution method; type: functional
Aspergillus niger [22] = assay: Antifungal activity against Aspergillus niger MTCC 282 at 100 ug/disc by paper disc diffusion technique; type: functional; details: read-out: IZ
Aspergillus fumigatus [23] = assay: Antifungal activity against Aspergillus fumigatus MTCC 343 at 100 ug/disc by paper disc diffusion technique; type: functional; details: read-out: IZ
Aspergillus clavatus [24] = assay: Antifungal activity against Aspergillus clavatus MTCC 1323 at 100 ug/disc by paper disc diffusion technique; type: functional; details: read-out: IZ
Candida albicans [25] = assay: Antifungal activity against Candida albicans MTCC 183 at 100 ug/disc by paper disc diffusion technique; type: functional; details: read-out: IZ
Aspergillus niger [26] = assay: Antifungal activity against Aspergillus niger MTCC 282 by agar streak dilution method; type: functional
Aspergillus fumigatus [27] = assay: Antifungal activity against Aspergillus fumigatus MTCC 343 by agar streak dilution method; type: functional
Aspergillus clavatus [28] = assay: Antifungal activity against Aspergillus clavatus MTCC 1323 by agar streak dilution method; type: functional
Candida albicans [29] = assay: Antifungal activity against Candida albicans MTCC 183 by agar streak dilution method; type: functional

| SMILES | MIC [1] | MIC [3] | inhibition at 6.25 µg/mL [4] | logP [5] | zone of inhibition at 100 µg/disc (Staphylococcus aureus [6]) | zone of inhibition at 100 µg/disc (Bacillus cereus [7]) | zone of inhibition at 100 µg/disc (Escherichia coli [8]) | zone of inhibition at 100 µg/disc (Pseudomonas aeruginosa [9]) | zone of inhibition at 100 µg/disc (Klebsiella pneumoniae [10]) | zone of inhibition at 100 µg/disc (Salmonella typhi [11]) | zone of inhibition at 100 µg/disc (Proteus vulgaris [12]) | zone of inhibition at 100 µg/disc (Shigella flexneri [13]) | MIC (Staphylococcus aureus [14]) | MIC (Bacillus cereus [15]) | MIC (Escherichia coli [16]) | MIC (Pseudomonas aeruginosa [17]) | MIC (Klebsiella pneumoniae [18]) | MIC (Salmonella typhi [19]) | MIC (Proteus vulgaris [20]) | MIC (Shigella flexneri [21]) | other results |
| --- | --- | --- | --- | --- | --- | --- | --- | --- | --- | --- | --- | --- | --- | --- | --- | --- | --- | --- | --- | --- | --- |
| CC[C@@H](CO)NCCN[C@@H](CC)CO [ETHAMBUTOL] | 3.12 µg/mL (≈ 15.3 µM) | – | – | – | – | – | – | – | – | – | – | – | – | – | – | – | – | – | – | – | inhibition at 6.25 µg/mL [2]: 99% |
| CO[C@H]1/C=C/O[C@@]2(C)Oc3c(C)c(O)c4c(O)c(c(/C=N/N5CCN(C)CC5)c(O)c4c3C2=O)NC(=O)/C(C)=C\C=C\[C@H](C)[C@H](O)[C@@H](C)[C@@H](O)[C@@H](C)[C@H](OC(C)=O)[C@@H]1C [RIFAMPIN] | 0.25 µg/mL (≈ 0.304 µM) | – | – | – | – | – | – | – | – | – | – | – | – | – | – | – | – | – | – | – | inhibition at 6.25 µg/mL [2]: 99% |
| COc1ccc(NC(=O)CSc2nnc(Cn3cnc4ccccc43)o2)cc1 | 6.25 µg/mL (≈ 15.8 µM) | 6.25 µg/mL (≈ 15.8 µM) | 99% | 2.37 | 13 mm | 18 mm | 20 mm | 21 mm | 11 mm | 20 mm | 21 mm | 19 mm | 100 µg/mL (≈ 253 µM) | 50 µg/mL (≈ 126 µM) | 50 µg/mL (≈ 126 µM) | 50 µg/mL (≈ 126 µM) | 100 µg/mL (≈ 253 µM) | 50 µg/mL (≈ 126 µM) | 25 µg/mL (≈ 63.2 µM) | 50 µg/mL (≈ 126 µM) | zone of inhibition at 100 µg/disc (Aspergillus niger [22]): 16 mm; zone of inhibition at 100 µg/disc (Aspergillus fumigatus [23]): 10 mm; zone of inhibition at 100 µg/disc (Aspergillus clavatus [24]): < 10 mm; zone of inhibition at 100 µg/disc (Candida albicans [25]): 22 mm; MIC (Aspergillus niger [26]): 100 µg/mL (≈ 253 µM); MIC (Aspergillus fumigatus [27]): 100 µg/mL (≈ 253 µM); MIC (Aspergillus clavatus [28]): 100 µg/mL (≈ 253 µM); MIC (Candida albicans [29]): 50 µg/mL (≈ 126 µM); inhibition at 6.25 µg/mL [2]: 99% |
| O=C(CSc1nnc(Cn2cnc3ccccc32)o1)Nc1nc2ccc(F)cc2s1 | > 6.25 µg/mL | 12.5 µg/mL (≈ 28.4 µM) | 99% | 3.85 | 25 mm | 29 mm | 17 mm | 20 mm | 19 mm | 24 mm | 22 mm | 24 mm | 3.12 µg/mL (≈ 7.08 µM) | 6.25 µg/mL (≈ 14.2 µM) | 50 µg/mL (≈ 114 µM) | 50 µg/mL (≈ 114 µM) | 50 µg/mL (≈ 114 µM) | 25 µg/mL (≈ 56.8 µM) | 25 µg/mL (≈ 56.8 µM) | 6.25 µg/mL (≈ 14.2 µM) | zone of inhibition at 100 µg/disc (Aspergillus niger [22]): 21 mm; zone of inhibition at 100 µg/disc (Aspergillus fumigatus [23]): 23 mm; zone of inhibition at 100 µg/disc (Aspergillus clavatus [24]): 21 mm; zone of inhibition at 100 µg/disc (Candida albicans [25]): 23 mm; MIC (Aspergillus niger [26]): 25 µg/mL (≈ 56.8 µM); MIC (Aspergillus fumigatus [27]): 25 µg/mL (≈ 56.8 µM); MIC (Aspergillus clavatus [28]): 50 µg/mL (≈ 114 µM); MIC (Candida albicans [29]): 50 µg/mL (≈ 114 µM) |
| COc1ccc2nc(NC(=O)CSc3nnc(Cn4cnc5ccccc54)o3)sc2c1 | > 6.25 µg/mL | 12.5 µg/mL (≈ 27.6 µM) | 99% | 3.56 | 19 mm | 20 mm | 18 mm | 12 mm | 21 mm | 20 mm | 26 mm | 24 mm | 25 µg/mL (≈ 55.2 µM) | 50 µg/mL (≈ 110 µM) | 50 µg/mL (≈ 110 µM) | 100 µg/mL (≈ 221 µM) | 50 µg/mL (≈ 110 µM) | 50 µg/mL (≈ 110 µM) | 12.5 µg/mL (≈ 27.6 µM) | 6.25 µg/mL (≈ 13.8 µM) | zone of inhibition at 100 µg/disc (Aspergillus niger [22]): 17 mm; zone of inhibition at 100 µg/disc (Aspergillus fumigatus [23]): < 10 mm; zone of inhibition at 100 µg/disc (Aspergillus clavatus [24]): 22 mm; zone of inhibition at 100 µg/disc (Candida albicans [25]): 25 mm; MIC (Aspergillus niger [26]): 50 µg/mL (≈ 110 µM); MIC (Aspergillus fumigatus [27]): 100 µg/mL (≈ 221 µM); MIC (Aspergillus clavatus [28]): 50 µg/mL (≈ 110 µM); MIC (Candida albicans [29]): 25 µg/mL (≈ 55.2 µM) |
| N#Cc1ccc2nc(NC(=O)CSc3nnc(Cn4cnc5ccccc54)o3)sc2c1 | > 6.25 µg/mL | 100 µg/mL (≈ 223 µM) | 95% | 3.72 | 24 mm | 22 mm | 24 mm | 15 mm | 25 mm | 17 mm | 19 mm | 21 mm | 6.25 µg/mL (≈ 14 µM) | 50 µg/mL (≈ 112 µM) | 25 µg/mL (≈ 55.9 µM) | 50 µg/mL (≈ 112 µM) | 25 µg/mL (≈ 55.9 µM) | 100 µg/mL (≈ 223 µM) | 50 µg/mL (≈ 112 µM) | 50 µg/mL (≈ 112 µM) | zone of inhibition at 100 µg/disc (Aspergillus niger [22]): 18 mm; zone of inhibition at 100 µg/disc (Aspergillus fumigatus [23]): 22 mm; zone of inhibition at 100 µg/disc (Aspergillus clavatus [24]): 18 mm; zone of inhibition at 100 µg/disc (Candida albicans [25]): 13 mm; MIC (Aspergillus niger [26]): 50 µg/mL (≈ 112 µM); MIC (Aspergillus fumigatus [27]): 50 µg/mL (≈ 112 µM); MIC (Aspergillus clavatus [28]): 100 µg/mL (≈ 223 µM); MIC (Candida albicans [29]): 100 µg/mL (≈ 223 µM) |
| NC(=O)c1cnccn1 [PYRAZINAMIDE] | 6.25 µg/mL (≈ 50.8 µM) | – | – | – | – | – | – | – | – | – | – | – | – | – | – | – | – | – | – | – | inhibition at 6.25 µg/mL [2]: 99% |
| Cc1ccc(NC(=O)CSc2nnc(Cn3cnc4ccccc43)o2)cc1 | > 6.25 µg/mL | 100 µg/mL (≈ 264 µM) | 95% | 2.98 | 11 mm | 13 mm | 14 mm | 14 mm | < 10 mm | 17 mm | 14 mm | < 10 mm | 100 µg/mL (≈ 264 µM) | 100 µg/mL (≈ 264 µM) | 100 µg/mL (≈ 264 µM) | 100 µg/mL (≈ 264 µM) | 100 µg/mL (≈ 264 µM) | 100 µg/mL (≈ 264 µM) | 100 µg/mL (≈ 264 µM) | 100 µg/mL (≈ 264 µM) | zone of inhibition at 100 µg/disc (Aspergillus niger [22]): < 10 mm; zone of inhibition at 100 µg/disc (Aspergillus fumigatus [23]): < 10 mm; zone of inhibition at 100 µg/disc (Aspergillus clavatus [24]): 12 mm; zone of inhibition at 100 µg/disc (Candida albicans [25]): 14 mm; MIC (Aspergillus niger [26]): 100 µg/mL (≈ 264 µM); MIC (Aspergillus fumigatus [27]): 100 µg/mL (≈ 264 µM); MIC (Aspergillus clavatus [28]): 100 µg/mL (≈ 264 µM); MIC (Candida albicans [29]): 100 µg/mL (≈ 264 µM) |
